Data as given in patent US20060276416A1, “Methods and compositions for treating flushing and drug induced weight gain” (Sirtris Pharmaceuticals, Inc., priority 2005, published 2006).
“And” between values parts separate entries of the source, which are not always exact repeats. Equal entries are not always repeated.

What was measured:
[1] = test system: AMPK at Thr172 and ACC at serine 79; test: AMPK and ACC phosphorylation Western in CHO-HIR cells; type: cell-based; details: AICAR 500 μM; resveratrol 12.5, 25 or 50 μM; 30 minutes
Procedure: Cells were harvested after 30 minutes and lysates were immediately boiled in SDS and subjected to Western analysis with site-specific antibodies. Phosphorylation of AMPK at Thr172 indicates activation of the kinase. Active AMPK phosphorylates and inactivates ACC at serine 79.

[2] = test system: H4IIEC3 cells; test: Oxidation of 14C-palmitate (14C-CO2 production); type: cell-based; details: resveratrol 10 μM, AICAR 500 μM, metformin 1 mM; 4 hours; vehicle 1
Procedure: (§1) Oxidation of ^14C-palmitate to acid-soluble products (modified from […] cells ([…]. and B. E. Kemp, J Biol Chem (1992) 267(5): 2864-7) and HepG2 cells were maintained as described above. Cells (10^6 cells/T25) were seeded in a T25 flask one day prior to the experiment. […] At the end of incubation, the cap of each […]per and a 1'×1.5'' Whatman filter paper soaked with 250 μl 2N NaOH. Each flask was injected with 2 ml of 6N HCL, placed in a horizontal position for 10 minutes and left standing overnight. […] The experiment was repeated three times.

[3] = test system: HepG2 cells; test: Oxidation of 14C-palmitate (14C-CO2 production); type: cell-based; details: resveratrol 10 μM, AICAR 500 μM, metformin 1 mM; 4 hours; vehicle 1
Procedure: as §1

[4] = test system: D. melanogaster; test: D. melanogaster survival (lifespan) assay; type: in vivo
Procedure: Survival assays were conducted independently with adult D. melanogaster in two laboratories. In the first laboratory, all trials used an yw marked wild-type strain. Larvae were reared on standard cornmeal-sugar-yeast (CSY) agar diet (cornmeal 5%, sucrose 10.5%, SAF yeast 2%, and agar 0.7%). Newly eclosed adults were placed in 1 L demography cages with approximately 75 males and 75 females. Three to four replicate 1 L demography cages were used for each treatment group in each trial. Every two days, dead flies were removed and scored, and food vials were replenished. Food vials contained cornmeal-sugar-yeast diet with SAF yeast as either 2% or 3% by weight. Test compounds in 100 μl of EtOH (or blank EtOH in controls) were mixed into melted aliquots of the adult food media to make a final concentration of 0, 10 or 100 μM. Fresh stock solutions and adult media were prepared weekly. In the second laboratory, lifespan trials were conducted with the wild type strain Canton-S, dSir2^4.5 and dSir2^5.26 (S. Smolik, University of Oregon), dSir2^17 (S. Astrom, Stockholm University, Sweden), and dSir2^KG00871 (Drosophila Stock Center, Bloomington, Ind.). Larvae for all tests were reared on standard cornmeal-sugar-yeast diet. Newly eclosed adults were incubated in plastic shell vials containing 5 ml of 15% sugar-yeast diet (15% SY) or 5% sugar-yeast (5% SY) diet (15% SY: 15% yeast, 15% sucrose, 2% agar; 5% SY: 5% yeast, 5% sucrose, 2% agar as per Ref.^20). In all trials, ˜20 males with ˜20 females were placed into each of 10 vials/treatment group. Every two days, flies were passed into new vials and dead flies were counted. […] Final compound concentrations were 0, 10, 100 or 200 μM. Fresh stock solution and adult media was prepared weekly.

[5] = test system: C. elegans; test: C. elegans fat accumulation, Nile Red staining; type: in vivo; details: for Concentration as low as which fat accumulation is reduced: 10, 50 and 100 μM tested
Procedure: Fat accumulation was visualized with Nile Red staining, as described further below and in Ashrafi K, et al. Nature 421:268-27 (2003).
Synchronized starved L1 worms were grown in the presence of Nile Red. Strains were grown on NGM plates at 25° C. for approximately 48 hours until the young adult stage was reached. 20-30 young adult worms were then washed 2× with M9 buffer and transferred to new NGM/Nile red experimental plates that contained either OP50 or HTT5 E. coli carrying the L4440 RNAi control vector.
Young adults were transferred to plates containing the appropriate vector, Nile Red stain and drug then maintained at 25° C.
Nile Red: Nile Red Powder (Sigma #N-3013) was dissolved in acetone at 500 μg/ml, diluted in 1× Phosphate Buffered Saline (PBS) including appropriate drug and applied to surface of Nematode Growth Media (NGM) plates previously seeded with OP50 or RNAi bacteria, at a final concentration of 0.05 μg/ml. Fat content was monitored and recorded by fluorescence microscopy.

[6] = target: p53-382 acetylated peptide substrate ('Fluor de Lys-SIRT1', BIOMOL) (human) (UniProt P04637)
[7] = target: T1, recombinant human SIRT1 (Homo sapiens, UniProt Q96EB6); test: SIRT1 fluorescent deacetylation assay (p53-382 acetylated peptide); type: biochemical
T1 sequence (Q96EB6 1-747): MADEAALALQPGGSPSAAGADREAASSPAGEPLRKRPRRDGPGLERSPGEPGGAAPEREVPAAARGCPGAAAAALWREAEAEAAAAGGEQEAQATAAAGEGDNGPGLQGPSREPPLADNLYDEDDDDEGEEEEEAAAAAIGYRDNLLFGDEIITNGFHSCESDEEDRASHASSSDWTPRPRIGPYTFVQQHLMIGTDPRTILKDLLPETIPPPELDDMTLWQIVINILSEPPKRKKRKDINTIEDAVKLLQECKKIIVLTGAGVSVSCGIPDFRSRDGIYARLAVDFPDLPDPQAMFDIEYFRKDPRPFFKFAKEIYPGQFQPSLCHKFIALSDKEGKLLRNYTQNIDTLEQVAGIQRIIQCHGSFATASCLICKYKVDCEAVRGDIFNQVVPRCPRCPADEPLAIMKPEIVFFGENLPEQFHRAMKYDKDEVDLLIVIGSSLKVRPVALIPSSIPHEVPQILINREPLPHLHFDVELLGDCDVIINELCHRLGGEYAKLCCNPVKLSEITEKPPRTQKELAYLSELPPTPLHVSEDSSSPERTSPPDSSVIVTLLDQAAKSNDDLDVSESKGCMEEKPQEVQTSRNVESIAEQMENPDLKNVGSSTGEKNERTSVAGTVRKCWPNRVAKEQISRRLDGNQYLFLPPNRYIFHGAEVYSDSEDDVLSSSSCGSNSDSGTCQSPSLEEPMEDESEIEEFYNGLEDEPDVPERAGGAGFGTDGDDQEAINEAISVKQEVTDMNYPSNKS
Procedure: To identify compounds that modulate SIRT1 activity, a number of small molecule libraries were screened using a fluorescent deacetylation assay in 96-well plates^26. The substrate used in the assay was a fluorogenic peptide based on the sequence encompassing the p53-K382 acetylation site, a known target of SIRT1 in vivo^20,21,27. […] The small molecule libraries included analogues of nicotinamide, ε-acetyl lysine, NAD^+, nucleotides, nucleotide analogues and purinergic ligands.
From 0.1 to 1 μg of SIRT1 and 1.5 μg of Sir2 were used per deacetylation assay (in 50 μl total reaction) as previously described^26. SIRT1 assays and certain of those for Sir2 employed the p53-382 acetylated substrate (‘Fluor de Lys-SIRT1’, BIOMOL) rather than FdL.
Themed compound libraries (BIOMOL) were used for primary and secondary screening. Most polyphenol compounds were dissolved at 10 mM in dimethylsulfoxide (DMSO) on the day of the assay. For water soluble compounds and negative controls, 1% v/v DMSO was added to the assay. In vitro fluorescence assay results were read in white ½-volume 96-well microplates (Corning Costar 3693) with a CytoFluor™ II fluorescence plate reader (PerSeptive Biosystems, Ex. 360 nm, Em. 460 nm, gain=85). […] Unless otherwise indicated all initial rate measurements were means of three or more replicates, obtained with single incubation times, at which point 5% or less of the substrate initially present had been deacetylated. Calculation of net fluorescence increases included subtraction of a blank value, which in the case of Sir2 was obtained by omitting the enzyme from the reaction and in the case of SIRT1 by adding an inhibitor (200 μM suramin or 1 mM nicotinamide) to the reaction prior to the acetylated substrate. A number of the polyphenols partially quenched the fluorescence produced in the assay and correction factors were obtained by determining the fluorescence increase due to a 3 μM spike of an FdL deacetylated standard (BIOMOL, catalog number KI-142). All error bars represent the standard error of the mean.
All SIRT1 rate measurements used in the calculation of “Ratio to Control Rate” were obtained with 25 μM NAD^+ and 25 μM p53-382 acetylated peptide substrate were performed as described above and in K. T. Howitz et al. Nature (2003) 425: 191. All ratio data were calculated from experiments in which the total deacetylation in the control reaction was 0.25-1.25 μM peptide or 1-5% of the initial concentration of acetylated peptide.

[8] = target: T2, SIRT1 deacetylase (BIOMOL) (Homo sapiens, UniProt Q96EB6); test: High-throughput SIRT1 screening protocol (Fluor de Lys-SIRT1, 384 well); type: biochemical; details: positive controls; roughly 50 μM, 200 μM NAD+, 5 μM Fluor de Lys-SIRT1
T2 construct: purchased BIOMOL
T2 sequence (Q96EB6 1-747): T1 sequence (Q96EB6 1-747)
Procedure: The reaction mixture contains (final): 0.5 units/reaction SIRT1 deacetylase (BIOMOL); 200 μM NAD^+; 5 μM Fluor de Lys-SIRT1 substrate (BIOMOL); buffer (25 mM Tris/Cl, pH 8.0, 137 mM NaCl, 2.7 mM KCl, 1 mM MgCl2, and 1 mg/ml BSA). In addition, a reaction mixture containing no enzyme was made so that each well receiving compound has a corresponding “no enzyme control” well. Reactions were performed in black 384 well plates (NUNC) in a final volume of 25 μl/well.
The reactions were started by combining enzyme and substrate in a reaction mixture immediately prior to aliquoting in plates (or substrate only for “no enzyme control” plates). Mixture were aliquoted to plates using Biotek μFill (Biotek Instruments). Control mixtures were manually added to designated wells. A library compound was added at a desired concentration by pin transfer to both “with enzyme” and “no enzyme” plates. Compounds were added in at least triplicate (with enzyme reaction in duplicate and no enzyme controls) at a final concentration of roughly 50 μM. The plates were incubated at 37° C. for 30-60 minutes. Then 25 μl of 1× Developer II (BIOMOL) plus 2 mM nicotinamide were added to all wells to stop the reactions. The reactions were left for at least 30 minutes at 37° C. for the signal to develop. The plates were read in a microplate-reading fluorometer capable of excitation at a wavelength in the range of 350-380 nm and detection of emitted light in the range of 440-460 nm. A read time of 0.1 sec per well was used.

[9] = test system: S. cerevisiae; test: Yeast replicative lifespan by micro-manipulation; type: cell-based; details: 10 μM
Procedure: Average lifespan for wild type, 22.9 generations, quercetin, 23.4; piceatannol.
Lifespan measurements were performed using PSY316AT MATα as previously described^35. All compounds for lifespan analyses were dissolved in 95% ethanol and plates were dried and used within 24 hours. Prior to lifespan analysis, cells were pre-incubated on their respective media for at least 15 hours. Following transfer to a new plate, cells were equilibrated on the medium for a minimum of 4 hours prior to micro-manipulating them. At least 30 cells were examined per experiment and each experiment was performed at least twice. Statistical significance of lifespan differences was determined using the Wilcoxon rank sum test. Differences are stated to be significant when the confidence is higher than 95%.

[10] = test system: TNF-alpha treated adipocytes; test: Radioactive glucose uptake in TNF-alpha treated insulin resistant adipocytes; type: cell-based; details: resveratrol 5 μM or 15 μM; roziglitazone 4 μM

`NC(=O)c1ncn([C@@H]2O[C@H](CO)[C@@H](O)[C@H]2O)c1N` [AICAR, 5-aminoimidazole-4-carboxamide-1-beta-D-ribofuranoside] was tested, and the “Phosphorylation of AMPK and ACC” value [1] was “stimulates phosphorylation of AMPK and ACC”, the “14C-CO2 production (nmol/hr/10^6 cells) (Fold Effect)” value (“14C-CO2 production … (Fold Effect)” below) [2] was 2.3 fold and the “14C-CO2 production … (Fold Effect)” value [3] was 5 fold.
`O=c1c(O)c(-c2ccc(O)c(O)c2)oc2cc(O)ccc12` [fisetin, 3,7,3′,4′-Tetrahyddroxyflavone] was tested, and the “Longevity under restricted diet” value ([4]; restricted diet) was “neither resveratrol nor fisetin further increased longevity”, the Lifespan extension ([4]; wild type strains, males and females, independent tests, maximum) was “up to 23%” and the Fat mobilization ([5]; 100 μM, 48 hours) was “stimulate fat mobilization”. The “Concentration as low as which fat accumulation is reduced” value ([5]; 48 hours) was 10 µM.
Work on “His6-tagged recombinant SIRT1 (from UniProt Q96EB6) (enzyme)” yielded a Km for the p53-382 acetylated peptide (SIRT1 initial deacetylation rate, fluorescence) [6] of 64 µM.
In the case of `CN(C)C(=N)N=C(N)N` [Metformin], the “14C-CO2 production … (Fold Effect)” value [2] was 2 fold and the “14C-CO2 production … (Fold Effect)” value [3] was 3.5 fold.
In the case of `NC(=O)c1cccnc1` [nicotinamide], the Vmax decrease ([7]; 50 μM nicotinamide, absence of resveratrol, two determinations (varying NAD+ or p53-382 peptide)) was 30% and 36% and the Fat accumulation ([5]; 0, 1 or 10 mM nicotinamide, overnight) was “concentration dependent increase in fat accumulation”.
In the case of `COc1ccc(/C=C/c2cc(O)cc(O)c2)cc1` [BML-233, 3,5-Dihydroxy-4′-methoxy-trans-stilbene], the “Activation of SIRT1” value [8] was 2.1 fold.
In the case of `Oc1cc(O)cc(/C=C/c2ccc(O)c(O)c2)c1` [piceatannol, 3,5,3′,4′-Tetrahydroxy-trans-stilbene], the “Stimulation of SIRT1 activity” value ([7]; initial screen (Table 1, 100 μM)) was “eight”, the “Effect on lifespan (in words)” value [9] was “no significant effect” and the Fat mobilization ([5]; 100 μM, 48 hours) was “stimulate fat mobilization”.
In the case of `Oc1cc(O)cc(/C=C/c2ccccc2)c1` [Pinosylvin, 3,5-Dihydroxy-trans-stilbene], the “Activation of SIRT1” value [8] was 3.28 fold.
For `C(=C/c1ccccc1)/c1ccccc1` [cis-stilbene, cis-Stilbene], the Fat staining ([5]; 100 μM, 48 hours, control 2.5% v/v DMSO) was “No significant effect”.
For `O=c1c(O)c(-c2ccc(O)c(O)c2)oc2cc(O)cc(O)c12` [quercetin, 3,5,7,3′,4′-Pentahydroxyflavone], the “Effect on lifespan (in words)” value [9] was “no significant effect”, the Fat mobilization ([5]; 100 μM, 48 hours) was “stimulate fat mobilization” and the “Concentration as low as which fat accumulation is reduced” value ([5]; 48 hours) was 10 µM.
With roziglitazone the “Insulin sensitivity (radioactive glucose uptake)” value [10] was “increases the uptake of radioactive glucose”.
